Data as given in PubChem BioAssay (NCI).
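In this assay, cells in 96-well plates receive the compound at five concentrations for 48 hours. Endpoints are linearly interpolated between the surrounding concentrations. Here, GI50 denotes the concentration required for 50% inhibition of growth. At the TGI there is no net growth.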

Experiments:
Assay in all cases: growth of human tumour cells (NCI), 48 h
A498 renal = system: A498 renal
A549 NSCLC = system: A549 NSCLC
EKVX NSCLC = system: EKVX NSCLC
HCC-2998 colon = system: HCC-2998 colon
HCT-116 colon = system: HCT-116 colon
OVCAR-4 ovarian = system: OVCAR-4 ovarian
OVCAR-8 ovarian = system: OVCAR-8 ovarian
RXF 393 renal = system: RXF 393 renal
SK-MEL-28 melanoma = system: SK-MEL-28 melanoma
SW-620 colon = system: SW-620 colon

Structure (SMILES) | GI50 (A498 renal) [µM] | TGI (A498 renal) [µM] | GI50 (A549 NSCLC) [µM] | TGI (A549 NSCLC) [µM] | GI50 (EKVX NSCLC) [µM] | TGI (EKVX NSCLC) [µM] | GI50 (HCC-2998 colon) [µM] | TGI (HCC-2998 colon) [µM] | GI50 (HCT-116 colon) [µM] | TGI (HCT-116 colon) [µM] | GI50 (OVCAR-4 ovarian) [µM] | TGI (OVCAR-4 ovarian) [µM] | GI50 (OVCAR-8 ovarian) [µM] | TGI (OVCAR-8 ovarian) [µM] | GI50 (RXF 393 renal) [µM] | TGI (RXF 393 renal) [µM] | GI50 (SK-MEL-28 melanoma) [µM] | TGI (SK-MEL-28 melanoma) [µM] | GI50 (SW-620 colon) [µM] | TGI (SW-620 colon) [µM]
COc1cc([N+](=O)[O-])cc2c3c(n(C)c12)[C@@]1(C)CCC2c4ccc(OCc5ccccc5)cc4CCC2C1C3 (some centres undefined) | 35.6 | > 100 | 72.2 | > 100 | 68.5 | > 100 | 47.9 | > 100 | 78.5 | > 100 | 61.6 | > 100 | > 100 | > 100 | 40.8 | > 100 | > 100 | > 100 | 90.6 | > 100
COC12C=C(C)C(CC1)CC2C(=O)O (centres undefined) |  | > 100 |  | > 100 |  | > 100 |  | > 100 |  | > 100 |  | > 100 |  | > 100 |  | > 100 |  | > 100 |  | > 100
CC[C@@]1(O)C(=O)OCc2c1cc1n(c2=O)Cc2c-1nc1cc3c(cc1c2CCl)OCO3 | < 0.0151 | 0.753 | < 0.01 | 3.25 | 0.994 | > 44.6 | 0.365 | 8.58 | < 0.01 | 0.294 | 0.693 | 11.6 | < 0.01 | 0.602 | < 0.0138 | 1.21 | 2.33 | 18.9 | < 0.0136 | 
N#Cc1ccc(O)c(C2=NCC(c3cccc(Oc4ccccc4)c3)O2)c1 (centres undefined) | 2.06 | 22.3 | 0.876 | 11.8 | 0.507 | > 100 | 0.881 | 57.8 | 0.587 | 13.7 | 0.519 | > 100 | 0.578 | > 100 | 1.53 | 9.56 | 2.09 | > 100 | 0.508 | 22.8
CCCn1cnc2c(SCc3ccccc3Cl)nc(N)nc21 | 18.3 | > 100 | 20.8 | > 100 | 24.2 | > 100 | 17.8 | 67 | 5.2 | 17.5 | 28 | > 100 | 15.3 | > 100 | 6.16 | 24.8 | 27 | > 100 | 11.9 | > 100
